The values that follow come from US10266544B2, “Aryl substituted aminomethyl spectinomycin analogs as antibacterial agents” (ST. JUDE CHILDREN'S RESEARCH HOSPITAL, INC., priority 2013, dated 2019).

For test [1], the system named is MRSA, Staphylococcus aureus (NRS70). The test is described as follows: MIC determination, microbroth dilution. In kind it is cell-based. The conditions noted are these: Staphylococcus aureus (NRS70); read-out: MIC MRSA. A general note: Dilution methods test growth across graded concentrations, often in twofold steps.
The subject of test [2] is Streptococcus pneumoniae (R6). The test is described as follows: MIC determination, microbroth dilution. In kind it is cell-based.
Test [3] relates to Streptococcus pyogenes (ATCC 700294). The test is described as follows: MIC determination, microbroth dilution. In kind it is cell-based. Conditions: ATCC700294; Streptococcus pyogenes (ATCC 700294); read-out: MIC S. py.
Test [4] relates to acinetobacter baumannii (ATCC 19606). The test is described as follows: MIC determination, microbroth dilution. In kind it is cell-based. Conditions: ATCC19606.
Test [5] has as its system Proteus mirabilis (ATCC 25933). Kind of test: MIC determination, microbroth dilution. In kind it is cell-based. Conditions: ATCC25933.
The subject of test [6] is Stenotrophomonas maltophilia (ATCC 13637). Kind of test: MIC determination, microbroth dilution. In kind it is cell-based. The conditions noted are these: ATCC13637; Stenotrophomonas maltophilia (ATCC 13637); read-out: MIC S.m.
The test system of test [7] is Neisseria meningitides (ATCC 13077). The test is described as follows: Disc diffusion assay. In kind it is cell-based. The conditions noted are these: ATCC13077, 4 μg per disc, read-out: Zone of inhibition N.m. A general note: Agar diffusion results depend on both activity and mobility in agar.
Test [8] concerns Neisseria gonorrhoeae (ATCC 49226). Kind of test: Disc diffusion assay. In kind it is cell-based. Conditions: ATCC49226, 4 μg per disc, read-out: Zone of inhibition N.g.
The subject of another test is Bacillus anthracis. The test is described as follows: microbe, parasite or virus in culture. In kind it is cell-based. The conditions noted are these: read-out: MIC B.a.
Another test relates to Yersinia pestis. The test is described as follows: microbe, parasite or virus in culture. In kind it is cell-based. The conditions noted are these: read-out: MIC Y.p.
A further test relates to S. pneumoniae D39x. Kind of test: Mouse challenge, mouse model of lung infection. In kind it is in vivo. Conditions: p<0.02. Here is the method:
Mice were treated with a 5 mg/kg dose b.i.d. of spectinomycin (indicated as “SPC” in the figure) or compound 2 (the compound number refers to the compound number and associated structure shown in Table 1), or vehicle. (Panel B) The bacterial burden of mice at 18 hours post-challenge with S. pneumoniae D39x. (Panel C) Representative bioluminescent images of mice at 72 hours post challenge.
All experimental animal protocols were approved by the St. Jude Children's Research Hospital Institutional Animal Care and Use Committee. Seven week old, female BalbC/J mice (Jackson Labs, Bar Harbor, Me.) we utilized in these studies. All mice were maintained in BSL2 facilities and all experiments were done under inhaled isoflurane (2.5%). Bacteria (strain D39x) were introduced by intranasal administration of 2×10^7 CFU in 25 μL PBS. Mice received no treatment, plasmalyte A (vehicle control), ampicillin (100 mg/kg), spectinomycin (50, 25, 5 mg/kg) or the respective compounds (50, 25, 5 mg/kg) at dosages indicated. Antibiotics were administered in a volume of 100 μL by subcutaneous […] starting at 18 hours post challenge, a time point when the mice have developed pneumonia and bacteria have translocated into the bloodstream. Mice were subsequently dosed every 12 hours until 96 hours post challenge. Mice were monitored daily for signs of infection and weight loss. Differences in time to death were compared via Kaplan-Meier survival estimates. Bacterial density in blood was quantified at 24, 48, 72, and 96 hours post infection via blood collection, serial dilution, and plating. Groups were then compared by Mann-Whitney to determine statistical significance. At 8 days following challenge, surviving mice were euthanized and bacterial loads in lungs determined by homogenization followed by serial dilution and plating. In all instances, surviving mice had completely cleared bacteria from both the lungs and the bloodstream by this time point.
Compound 2 was tested for anti-pneumococcal activity in mice as described above. […]

Where a name gives a salt, the structure may show the parent alone. Read-outs that look alike come from different tables or passages of the source.

As for `CN[C@@H]1[C@H](O)[C@H](NC)[C@H]2O[C@]3(O)[C@H](O[C@@H]2[C@H]1O)O[C@H](C)C[C@@]3(O)CNCc1ccc(F)cc1` [compound 2, 3′-(R)-3′-[(4-fluoro)benzylaminomethyl)]dihydrospectinomycin Trihydrochloride], the MIC in test [1] was 50 mg/L; in test [2] (Streptococcus pneumoniae (R6), read-out: MIC S. pn.) it was 1.6 to 3.1 mg/L; in test [2] (Streptococcus pneumoniae, S. pneumoniae R6, Drug Susceptible, read-out: MIC R6), 3.1 mg/L; in test [3] it was 1.6 to 3.1 mg/L; in [4] it was greater than 200 mg/L; in [5] it was greater than 200 mg/L. Besides, the MIC in test [6] worked out at 25 mg/L; in the test with Bacillus anthracis, 25 mg/L; in the test on Yersinia pestis, 100 mg/L. The zone of inhibition (as a rule, the size of the clear area around the sample on an inoculated plate) at 4 µg/disc was 19 to 20 mm in [7] and 16 to 19 mm in [8]. In the test with S. pneumoniae D39x (5 mg/Kg BID subcutaneous, from 18 hours post intranasal challenge, vs vehicle and spectinomycin), the survival entry is “significantly improved survival”. The “bacterial burden in the blood” value in the test on S. pneumoniae D39x (48 hours post-challenge, vs spectinomycin and vehicle) was “reduced significantly”.
